Source: patent US8716228B2, “GPR54 agonists or antagonists for treatment of diseases presenting behavioral abnormalities” (YEDA Research and Development Co. Ltd., priority 2009, dated 2014)

How the values were obtained:
Format in all cases: in vivo, mouse
[1] = test system: C57B1/6 mice; assay: PPI in MK-801 pharmacological model of schizophrenia; details: Kp-10 i.p. 100 μl of 100 μM 15 min prior to MK-801 (0.1 mg/kg)
Experimental: (§1) Prepulse Inhibition (PPI). PPI testing was performed within startle chambers purchased from Med Associates Inc (Med Associates, St. Albans, Vt., USA). PPI was analyzed as described previously (Kipnis et al., 2004). Briefly, during a period of acclimation, a 65-dB background noise was applied for 5-min, and continued throughout the test session. All sessions for testing of PPI consisted of startle trials (pulse alone, 40-ms, 120-dB), prepulse trials (prepulse 20-ms, 69, 73, 78, or 81 dB followed by a (100-ms delay) pulse), and no-stimulus trials. All sessions were presented in pseudo-random order. The average time between trials was 15 s (range 12-30 s). PPI was calculated as: % PPI=100−{[(startle response for prepulse+pulse)/(startle response for pulse-alone)]×100}. In all the experiments, there were no significant differences between groups in trials of startle reactivity to pulse alone, and in no-stimulation trials. Data from no-stimulation trials are not included in the results because the values obtained were negligible relative to values from trials containing startle stimuli. Reduced PPI is associated with schizophrenia-related behavior. […]
To further establish the antipsychotic effect of Kp-10, we evaluated its ability to overcome psychotic symptoms induced by the psycho-mimetic agent, MK-801 (N-methyl-D-aspartate (NMDA) antagonist), which induces neurotransmitter imbalance. […]

[2] = test system: SCID mice; assay: Prepulse inhibition (PPI) in SCID mice; details: adult (12 week old) SCID mice, i.p. 100 μl of 100 μM, 30 minutes prior to PPI testing, vs PBS
Experimental: as §1, with “trials.” for “trials. Data from no-stimulation trials are not included in the results because the values obtained were negligible relative to values from trials containing startle stimuli. Reduced PPI is associated with schizophrenia-related behavior.”
To confirm this possibility we examined whether injection of kisspeptin can restore the abnormal PPI in SCID mice to the normal level in wild-type mice. We analyzed the PPI in adult (12 week old) wild-type mice and, in SCID mice that were injected IP with 100 μl of 100 μM Kp-10 (SEQ ID NO:3), 30 minutes prior to PPI testing. […]

[3] = test system: BDNF; assay: qPCR of BDNF transcripts in hippocampus; details: mRNA, offspring of poly I:C treated dams treated at 8 weeks with Kp-10 or PBS
Experimental: RNA purification, cDNA synthesis, reverse transcription PCR, and real-time quantitative PCR analysis. For RNA expression analysis, cells from whole hippocampi were extracted with TRI Reagent (MRC, Cincinnati, Ohio), and total cellular RNA was purified from the lysates using the RNeasy kit (Qiagen, Hilden, Germany). RNA (1 μg) was converted to cDNA using SuperScript II (Promega, Madison, Wis.). The amplification cycle was 95° C. for 5 s, 60° C. for 20 s, and 72° C. for 15 s.
The following primers were used: […]
To understand what is the mechanism behind the prophylactic treatment of Kp-10 we examined the expression of total brain-derived neurotrophic factor (BDNF) and its exon transcripts 1-4 according to Zajac et al. (2010). […] Recently, association between a BDNF variant and childhood-onset mood disorder was established (Strauss et al., 2005). Therefore, we studied mRNA expression of a few BDNF transcripts in the hippocampus of offspring of PBS treated dams (n=5) compared to offspring of poly I:C treated dams, which were treated at 8 weeks with either Kp-10 (n=6) or PBS (n=6) (Table 3). […] Treatment with Kp-10 at 8 weeks of age induced an increase in the expression of BDNF1 transcript to the normal level (Table 3(ii)). […] In addition, no significant difference was found between the groups in the expression of BDNF transcripts 3 and 4 (Table 3(iv and v)). […] The involvement of BDNF in schizophrenia and its effect on PPI levels are still a debate. Our observations of changes in expression of selective forms of BDNF might explain this apparent dichotomy.

Substance: YNWNSFGLRF—NH2 [Kp-10]
- PPI levels [1]: improved the PPI levels
- PPI [2]: restored the PPI of SCID mice back to the normal level
- Expression of BDNF1 transcript [3]: *2.2 ± 0.5
- Expression of BDNF2 transcript [3]: ^#6.7 ± 1 ^
- Expression of BDNF3 transcript [3]: 8 ± 3
- Expression of BDNF4 transcript [3]: 9 ± 2
- Expression of BDNF transcript (total BDNF) [3]: 2.4 ± 0.5
